# Calls of active or inactive are those of the source.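 The calls were made as follows: active = loss of HeLa cell viability with AC50 at most tenfold above the top tested dose; inconclusive = flat fit with signal drop between 30% and 70%, or poor fit; inactive = AC50 more than tenfold above top tested dose.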
# Test system: HeLa viability, ATP luminescence (CellTiterGlo), 48 h
# Assay: mammalian cell viability by ATP level – luminescence, HeLa, cytotoxicity control for LANA inhibitor project, dose response (AID 463211)
row,SMILES,AC50
1,Cc1n[nH]c(C)c1N1C(=O)c2cccc3c(N4CCCCCC4)ccc(c23)C1=O,> 35 µM (inactive)
2,COc1ccc2c3c(cccc13)C(=O)CC2,22.3 µM
3,O=C1CCN2C=Nc3cccc4ccc1c2c34,8.08 µM
4,CC1=NCCc2c1[nH]c1cc(O)ccc21,> 35 µM (inactive)
5,CC1Cc2ccccc2N1C(=O)CSc1ncccn1 (centres undefined),> 35 µM (inactive)
6,CC(=O)Nc1cccc(N)c1,> 35 µM (inactive)
7,CC(=O)Oc1ccc2c(c1)Oc1cc(OC(C)=O)ccc1C21OC(=O)c2ccccc21,> 35 µM (inactive)
8,O=C1c2ccccc2-c2onc3ccc(NCc4ccco4)c1c23,28.5 µM
9,COc1ccc2ccccc2c1C(O)c1nccn1C (centres undefined),> 35 µM (inactive)
10,COc1ccc(C2C=C(c3ccc(Br)cc3)Nc3nc(NS(C)(=O)=O)nn32)cc1 (centres undefined),> 35 µM (inactive)
11,CC(=O)Nc1ccc(-c2cn3ccsc3n2)cc1,> 35 µM (inactive)
12,O=C(CCCN1C(=O)c2cccc3cccc(c23)C1=O)N1CCN(c2ccccc2)CC1,> 35 µM (inactive)
13,Cn1nc(-c2ccccc2)c2nc3ccccc3nc21,> 35 µM (inactive)
14,CN(C)/C=C1\C=C2C(=O)c3ccccc3N2C1=O,> 35 µM (inactive)
15,O=C1c2ccccc2-c2onc3ccc(NCCCn4ccnc4)c1c23,32.4 µM
16,Cc1cc2nc3c(=O)n(Cc4ccccc4)c(=O)[nH]c3nc2cc1N,> 35 µM (inactive)
17,CCCCCCCCCCCCCCCC[n+]1ccc(/C=N/O)cc1,11.9 µM
18,O=S(=O)(Nc1cc(Cl)ccc1N1CCOCC1)c1ccccc1Cl,> 35 µM (inactive)
19,Cc1cc(C)cc(NS(=O)(=O)c2ccc3c(c2)C(C)(C)C(=O)N3C)c1,> 35 µM (inactive)
20,CC(C)(C)C1(C)OC(=O)C(=Cc2ccc(OCC(=O)Nc3ccccc3)cc2)C(=O)O1 (centres undefined),> 35 µM (inactive)
21,CC(C)CSC1=NSC2=NC(=O)/C(=C\c3coc4ccccc4c3=O)C(=N)N12,> 35 µM (inactive)
22,Cc1cccc(N2C(=O)c3cccc4c(N(C)CCO)ccc(c34)C2=O)c1,> 35 µM (inactive)
23,COc1cccc2c1C(=O)c1c(O)c3c(c(O)c1C2=O)CC(O)(C(=O)CO)CC3OC1CC(N)C(O)C(C)O1 (centres undefined),4.4 µM
24,O=c1ccc2c(-c3ccccc3)c3ccc(O)cc3oc-2c1,> 35 µM (inactive)
25,Cc1nn(C)c(C)c1N1C(=O)c2cccc3c(N)ccc(c23)C1=O,> 35 µM (inactive)
26,CCCCCCn1c(=O)[nH]c2nc3cc(N)ccc3nc2c1=O,> 35 µM (inactive)
27,Cc1nn(C)cc1N1C(=O)c2cccc3c(N)ccc(c23)C1=O,> 35 µM (inactive)
28,Cc1ccc(Cl)cc1N1CCN(C(=O)C2CCN(S(C)(=O)=O)CC2)CC1,> 35 µM (inactive)
29,Cc1cc(C)c2nc(C(F)(F)F)nc(NCCCN3CCCC3=O)c2c1,> 35 µM (inactive)
